Results taken from patent US20240148718A1, “INHIBITING MUTANT ISOCITRATE DEHYDROGENASE 1 (mIDH-1)” (FORMA Therapeutics, Inc., priority 2018, published 2024).

What was measured:
[1] = test system: IDH1m clone in AML patients; test: IDH1 Variant Allele Frequency (VAF) analysis in Phase 1 patients; assay type: in vivo, human
Method: Next generation sequencing was carried out through target enrichment using HaloPlex® Target followed by Illumina® sequencing; coverage>100X across 75 genes. Digitial droplet PCR (ddPCR) was carried out through an input of 20 ng on a Stilla 3-channel system; VAF data based on >20,000 droplets.
25 patients achieved an objective response and 6 patients with SD had available longitudinal samples for analysis (VAF at C3).

BCL6 = BCL6 (Homo sapiens, UniProt P41182); test: Surface Plasmon Resonance (SPR), control surface; assay type: binding; details: immobilized unrelated protein BCL6
[2] = test system: AML/MDS harboring IDH1-R132 mutations; test: Phase 1 dose escalation and expansion study, investigator-assessed response; assay type: in vivo, human

binding to control surface (BCL6): no binding was observed
SMILES: C[C@H](Nc1ccc(C#N)n(C)c1=O)c1cc2cc(Cl)ccc2[nH]c1=O [Compound 1, 5-{[(1S)-1-(6-chloro-2-oxo-1,2-dihydroquinolin-3-yl)ethyl]amino}-1-methyl-6-oxo-1,6-dihydropyridine-2-carbonitrile]
patients with clearance/significant reduction of the IDH1m VAF ([1]; 3 of 6 patients with stable disease): 50%
patients with IDH1 mutation clearance/significant VAF reduction ([1]; 10 of 25 patients with an IWG (objective) response, single agent or with azacitidine, VAF at ≥C3): 40%
IDH1 mutation and 2-HG, case study 2 ([1]; one treatment naive AML secondary to MDS patient, single agent, stable for 15 cycles, no IWG response): IDH1 mutation clearance and normalization of 2-HG were observed
CR/CRm, n (%) ([2]; All Pts): 5 (16) n (%)
CRh, n (%) ([2]; All Pts): 3 (9) n (%)
Marrow CR, n (%) ([2]; All Pts): 1 (3) n (%)
PD, n (%) ([2]; All Pts): 3 (9) n (%)
CR/CRm, n (%) ([2]; R/R AML): 4 (18) n (%)
CRh, n (%) ([2]; R/R AML): 3 (14) n (%)
Cri, n (%) ([2]; R/R AML): 2 (9) n (%)
NE, n (%) ([2]; R/R AML): 6 (27) n (%)
PD, n (%) ([2]; R/R AML): 2 (9) n (%)
pts achieving ORR ([2]; R/R AML): 41%
